Experimental data published in PMC12152883, “Bile acids inhibit equilibrative adenosine transport to alter adenosine receptor signaling in cholestasis” (The Journal of Biological Chemistry, 2025).
Values joined by “and” are separate entries in the source; they are usually repeats but may differ in a detail not shown here. Equal entries are not always repeated. Where two headings read alike, the source gives them in different places.

Assays:
Type in all cases: cell-based
ENT1 [1] = target: T1, ENT1 (Homo sapiens, UniProt Q99808); test: Radiolabeled BA transport in ENT1 mRNA-injected Xenopus oocytes; conditions: 3H-labelled BA, Na+-containing buffer, pH 7.4
T1 construct: The complete ORF of ENT1 (amplified using forward primer); expressed in transfected cells; host or cells: Xenopus laevis oocytes injected with in vitro-transcribed capped mRNA from pOX-hENT1
T1 sequence (Q99808 1-456): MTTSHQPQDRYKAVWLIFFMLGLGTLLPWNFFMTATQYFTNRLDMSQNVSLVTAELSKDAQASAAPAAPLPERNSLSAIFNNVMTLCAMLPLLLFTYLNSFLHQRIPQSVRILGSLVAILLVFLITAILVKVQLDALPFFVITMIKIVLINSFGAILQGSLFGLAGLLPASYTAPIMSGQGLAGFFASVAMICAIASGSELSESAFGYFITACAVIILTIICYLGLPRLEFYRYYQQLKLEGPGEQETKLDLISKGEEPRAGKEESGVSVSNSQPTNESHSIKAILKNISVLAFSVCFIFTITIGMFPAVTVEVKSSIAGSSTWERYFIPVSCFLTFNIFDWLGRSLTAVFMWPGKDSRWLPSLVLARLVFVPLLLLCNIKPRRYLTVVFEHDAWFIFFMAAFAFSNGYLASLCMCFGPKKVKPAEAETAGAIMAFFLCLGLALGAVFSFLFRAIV
Procedure: (§1) We used a Xenopus oocyte-based transport assay that was previously used to examine BA transport by plasma membrane–directed ENT3 with a truncated N-terminus (that harbors lysosomal targeting motif) to experimentally verify whether ENT2 is capable of translocating BAs across the cell membrane ([24]). We tested both ENT1 and ENT2 along with CNT2, a purine nucleoside-specific concentrative transporter, to investigate their capacities to transport radiolabeled BAs. […] Transport was measured at pH 7.4, which is the closest pH to the pH of the extracellular fluid in which cells are exposed to solutes such as BAs to conduct plasma membrane transport ([29]).
The generated pOX expression constructs were linearized with either the Not1 or Sac1 restriction enzymes. The digested products were purified via phenol‒chloroform extraction. The mRNAs were synthesized using mMESSAGE mMACHINE (Ambion) transcription kits according to the manufacturer’s instructions. The mRNAs were purified via lithium precipitation. Oocytes were procured from Ecocyte. Prior to experiments, procured oocytes were defolliculated by treating with collagenase A-OR II solution followed by washing with Barth’s solution. Following microscopic verification, selected oocytes were incubated to recover overnight at 25 °C in a shaker incubator. Fifty nanoliters (400–800 ng/μl) of equal amounts of mRNAs were injected into defolliculated oocytes the next day. Expression of plasmids was analyzed after RNA isolation from oocyte extracts and conducting qPCR analysis with gene-specific primers as described earlier ([30]). The injected oocytes were incubated at 15 °C for 24 h before transport assays were performed. The uptake of radiolabeled substrates was measured after a 30 min incubation in transport buffer (100 mM NaCl, 2 mM KCl, 1 mM CaCl2, 1 mM MgCl2, and 10 mM Hepes, pH 7.4) at room temperature. […] Individual oocytes were shaken overnight in 10% SDS for complete dissolution, and then the radioactivity was quantified with a Beckman liquid scintillation counter. […]

ENT1 [2] = target: T1, ENT1; test: Inhibition of 3H-nucleoside influx by BAs in ENT1-expressing Xenopus oocytes; conditions: 3H-Ado 20 μM, sodium-free buffer; for ENT1 % uptake inhibition (Ado): BA 100 μM
Text: We expressed individual ENTs (ENT1, ENT2, and ENT3) in X. laevis oocytes (as described above) and analyzed the Ado influx from each of the ENTs in the presence of different BAs to better understand whether the inhibition profiles differ across human ENTs. […] We also conducted an analysis of the concentration-dependent inhibition of Ado transport to estimate the IC50 values of the BAs (Fig. 4, D–F and Table 2).
Inhibition of Ado influx in H2O- and ENT-injected oocytes by treatment with different BAs at 100 μM. D–F, concentration-dependent inhibition of Ado influx in ENT-injected oocytes by different BAs. The bars represent the mean ± SD (n = 8–12 oocytes). A representative experiment from 3 to 5 independent experiments is presented. Statistical analysis was performed using one-way ANOVA with Dunnett’s multiple comparisons test; ∗p < 0.032, ∗∗p < 0.0021, ∗∗∗∗p < 0.0001.
The generated pOX expression constructs were linearized with either the Not1 or Sac1 restriction enzymes. The digested products were purified via phenol‒chloroform extraction. The mRNAs were synthesized using mMESSAGE mMACHINE (Ambion) transcription kits according to the manufacturer’s instructions. The mRNAs were purified via lithium precipitation. Oocytes were procured from Ecocyte. Prior to experiments, procured oocytes were defolliculated by treating with collagenase A-OR II solution followed by washing with Barth’s solution. Following microscopic verification, selected oocytes were incubated to recover overnight at 25 °C in a shaker incubator. Fifty nanoliters (400–800 ng/μl) of equal amounts of mRNAs were injected into defolliculated oocytes the next day. Expression of plasmids was analyzed after RNA isolation from oocyte extracts and conducting qPCR analysis with gene-specific primers as described earlier ([30]). The injected oocytes were incubated at 15 °C for 24 h before transport assays were performed. […] Uptake was terminated by washing the oocytes three times with arrest buffer containing 20 mM uridine. Individual oocytes were shaken overnight in 10% SDS for complete dissolution, and then the radioactivity was quantified with a Beckman liquid scintillation counter. The data are presented as the mean ± SD (n = 8–12 oocytes). A representative experiment from 3 to 5 independent experiments is presented.

ENT2 = target: T2, ENT2 (Homo sapiens, UniProt Q14542); test: Radiolabeled BA transport in ENT2 mRNA-injected Xenopus oocytes; design: expressed in transfected cells; host or cells: Xenopus laevis oocytes injected with in vitro-transcribed capped mRNA from pOX-hENT2; conditions: for fold increased transport activity compared with H2O-injected oocytes: 3H-labelled BA, Na+-containing buffer, pH 7.4
T2 sequence (Q14542 1-456): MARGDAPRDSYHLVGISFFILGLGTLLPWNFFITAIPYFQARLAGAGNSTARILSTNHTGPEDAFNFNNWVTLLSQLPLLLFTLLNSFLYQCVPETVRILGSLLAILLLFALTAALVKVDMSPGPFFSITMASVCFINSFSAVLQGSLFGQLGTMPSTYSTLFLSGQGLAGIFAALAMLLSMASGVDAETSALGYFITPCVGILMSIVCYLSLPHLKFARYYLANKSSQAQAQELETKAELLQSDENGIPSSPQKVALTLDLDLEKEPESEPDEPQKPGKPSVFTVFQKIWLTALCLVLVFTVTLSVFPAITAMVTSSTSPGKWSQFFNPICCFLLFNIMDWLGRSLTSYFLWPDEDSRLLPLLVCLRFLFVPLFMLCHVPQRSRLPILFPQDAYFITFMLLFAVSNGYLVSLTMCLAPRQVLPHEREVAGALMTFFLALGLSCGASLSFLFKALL
Procedure: as §1
The generated pOX expression constructs were linearized with either the Not1 or Sac1 restriction enzymes. The digested products were purified via phenol‒chloroform extraction. The mRNAs were synthesized using mMESSAGE mMACHINE (Ambion) transcription kits according to the manufacturer’s instructions. The mRNAs were purified via lithium precipitation. Oocytes were procured from Ecocyte. Prior to experiments, procured oocytes were defolliculated by treating with collagenase A-OR II solution followed by washing with Barth’s solution. Following microscopic verification, selected oocytes were incubated to recover overnight at 25 °C in a shaker incubator. Fifty nanoliters (400–800 ng/μl) of equal amounts of mRNAs were injected into defolliculated oocytes the next day. Expression of plasmids was analyzed after RNA isolation from oocyte extracts and conducting qPCR analysis with gene-specific primers as described earlier ([30]). The injected oocytes were incubated at 15 °C for 24 h before transport assays were performed. The uptake of radiolabeled substrates was measured after a 30 min incubation in transport buffer (100 mM NaCl, 2 mM KCl, 1 mM CaCl2, 1 mM MgCl2, and 10 mM Hepes, pH 7.4) at room temperature. Uptake was terminated by washing the oocytes three times with arrest buffer containing 20 mM uridine. Individual oocytes were shaken overnight in 10% SDS for complete dissolution, and then the radioactivity was quantified with a Beckman liquid scintillation counter. The data are presented as the mean ± SD (n = 8–12 oocytes). A representative experiment from 3 to 5 independent experiments is presented.

[3] = read-out: ENT1 IC50 (Ado uptake)

SMILES	transport of BA by ENT1 (ENT1 [1])	IC50 (ENT1 [2]; [3])	ENT1 % uptake inhibition (Ado) (ENT1 [2])	Km (ENT2; oocytes, Fig. 2B)	Vmax of BA transport by ENT2 (ENT2; oocytes, Fig. 2B)	pH dependence of 3H-CA transport mediated by ENT2 (ENT2; pH 5.5 to pH 7.4)	IC50 (ENT1 [2]; ENT1 IC50 (Ado uptake))	fold increased transport activity compared with H2O-injected oocytes (ENT2)
C[C@H](CCC(=O)O)[C@H]1CC[C@H]2[C@@H]3[C@H](O)C[C@@H]4C[C@H](O)CC[C@]4(C)[C@H]3C[C@H](O)[C@]12C [CA, cholic acid]	incapable of transporting	42.1 ± 8.7 µM	45.48%	~195 µM	2.84 pmol/oocyte∗30 min	not dependent on pH		
C[C@H](CCC(=O)NCCS(=O)(=O)O)[C@H]1CC[C@H]2[C@@H]3[C@H](O)C[C@@H]4C[C@H](O)CC[C@]4(C)[C@H]3C[C@H](O)[C@]12C [TCA, taurocholic acid]	incapable of transporting		80.39%				52.9 ± 14.6 µM	2.23 fold
C[C@H](CCC(=O)O)[C@H]1CC[C@H]2[C@@H]3CC[C@@H]4C[C@H](O)CC[C@]4(C)[C@H]3C[C@H](O)[C@]12C [DCA, deoxycholic acid]	incapable of transporting	56.4 ± 14.9 µM	69% and 71.01%		3.359 pmol/oocyte∗30 min			1.78 fold
